These results are taken from PMC4453511 (mBio, 2015).

The target in this test is Rv1026/PPX2 (6×His-Rv1026) (Mycobacterium tuberculosis, UniProt P96374).
Rv1026/PPX2 (6×His-Rv1026), sequence (P96374 whole entry): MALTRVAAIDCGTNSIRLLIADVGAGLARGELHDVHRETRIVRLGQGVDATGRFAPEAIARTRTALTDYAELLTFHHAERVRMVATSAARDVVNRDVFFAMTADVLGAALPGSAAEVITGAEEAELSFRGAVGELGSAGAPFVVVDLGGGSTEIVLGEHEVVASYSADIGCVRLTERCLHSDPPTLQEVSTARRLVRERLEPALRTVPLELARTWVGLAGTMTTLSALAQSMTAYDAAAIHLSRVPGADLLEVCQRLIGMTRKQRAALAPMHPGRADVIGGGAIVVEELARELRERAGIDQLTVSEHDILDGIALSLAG
As for `Nc1nc2c(ncn2[C@@H]2O[C@H](COP(=O)(O)OP(=O)(O)O)[C@@H](O)[C@H]2O)c(=O)[nH]1` [GDP], the “DAPI-based poly(P) hydrolysis assay” value is “accelerated when recombinant protein was incubated with AMP/ADP and GMP/GDP”.

As to `Nc1nc2c(ncn2[C@@H]2O[C@H](COP(=O)(O)O)[C@@H](O)[C@H]2O)c(=O)[nH]1` [GMP], the “DAPI-based poly(P) hydrolysis assay” value was “accelerated when recombinant protein was incubated with AMP/ADP and GMP/GDP”.

Take `Nc1ncnc2c1ncn2[C@@H]1O[C@H](COP(=O)(O)O)[C@@H](O)[C@H]1O` [AMP]: the “DAPI-based poly(P) hydrolysis assay” value was “accelerated when recombinant protein was incubated with AMP/ADP and GMP/GDP”.

`Nc1ncnc2c1ncn2[C@@H]1O[C@H](COP(=O)(O)OP(=O)(O)O)[C@@H](O)[C@H]1O` [ADP]: the “DAPI-based poly(P) hydrolysis assay” value was “accelerated when recombinant protein was incubated with AMP/ADP and GMP/GDP”.
